From patent US8436002B2, “AKT inhibitors” (Eli Lilly and Company, priority 2009, dated 2013)
“And” between values parts separate entries of the source, which are not always exact repeats. Equal values may be shown once.

Assays:
A2780 = test: Cell proliferation combination study (CellTiter-Glo); type: cell-based
Procedure: (§1) The proliferation assay uses the CellTiter-Glo Luminescent Cell Viability Assay System (commercially available from Promega) to determine the cell number of viable cells in culture based on quantitation of the ATP present, which signals the presence of metabolically active cells.
(§2) The cells are plated in 96-well plate at 2000 cells/well in volume of 50 μL medium (DMEM, 10% FBS, 25 mM HEPES, 1.0 mM Sodium Pyruvate, and 0.1 mM Non Essential Amino Acids) except column 1 with medium only as blank control. The plates are incubated overnight at 37° C. and 5% CO2. On the next day, compound stocks are prepared at 40 mM in DMSO (500×) and serially diluted in DMSO in a 96-well round bottom polypropylene plate. Compounds are assayed at 10 concentrations in duplicate, 4 compounds per plate.
(§3) 4 μL of the serial DMSO dilutions are transferred to a 96 deep-well plate and 1 mL complete culture medium is added to create 2× stock for dosing. 50 μL of each 2× dosing stock is gently transferred to the corresponding well of the cell plate resulting in a 0.2% DMSO concentration and a 100 μL final volume. […] medium are added to the Control columns (Column 12) and background columns (Column 1). Cells are incubated with compound for at 37° C., 5% CO2 for 72 hr.
(§4) After incubation, 100 μL of the pre-prepared CellTiter-Glo reagent (Promega, Cat: G7571) is added in each well and then the cells are homogenized by mixing on an orbital shaker for 2 min and incubated at RT for 10 minutes to allow luminescent signal stabilization Luminescent raw data is recorded on Wallac Victor V plate reader and the IC50 value for each compound is generated using percent inhibition data. A four-parameter logistic curve is fit to each dose response.
(§5) Combination studies use the fixed ratio method, where the other therapeutic agent and the compound of the present invention are present in fixed ratios of concentrations corresponding to the IC50 equivalents of single agents. The read out for the combination studies is cell proliferation in respective cell lines using Cell Titer Glo reagents. Controls are processed similarly but without the compounds. Analysis of the data is done according to the method described in Zhao et. Al. (Clinical Cancer Research 10, 7994-8004, Dec. 1, 2004) utilizing an internally developed web based tool. A combination index is calculated for each cell proliferation inhibition activity level according to the equation below. Combination Index at activity level x=[Concentration of other therapeutic agent in the combination at the activity level x/ICx of the other therapeutic agent]+[Concentration of the compound of the present invention in the combination at the activity level x/ICx of the compound of the present invention]

HCC827 = test: as above; type: cell-based
Procedure: as §1, §2, §3, §4, §5

Calu6 = test: as above; type: cell-based
Procedure: as §1, §2, §3, §4, §5

NCI-H1975 = test: as above; type: cell-based
Procedure: as §1, §2, §3, §4, §5

H1650 = test: as above; type: cell-based
Procedure: as §1, §2, §3, §4, §5

NCIH460 = test: as above; type: cell-based
Procedure: as §1, §2, §3, §4, §5

BxPC3 = test: as above; type: cell-based
Procedure: as §1, §2, §3, §4, §5

MCF-7 = test: as above; type: cell-based
Procedure: as §1, §2, §3, §4, §5

H1155 = test: as above; type: cell-based; settings: with Gemcitabine
Procedure: as §1, §2, §3, §4, §5

MDA-MB-231 = test: as above; type: cell-based
Procedure: as §1, §2, §3, §4, §5

RKO = test: as above; type: cell-based; settings: with Irinotecan
Procedure: as §1, §2, §3, §4, §5

SK0V3 = test: as above; type: cell-based
Procedure: as §1, §2, §3, §4, §5

AsPC1 = test: as above; type: cell-based
Procedure: as §1, §2, §3, §4, §5

AKT = AKT In Vivo Target Inhibition (IV), U87MG tumors in athymic rats; settings: Rattus norvegicus, U-87 MG, IV dose 20 mpk, 4 hr post IV dose, n = 2, read-out: p(S9)GSK 3β - % inhibition
Procedure: Exponentially growing U87MG cells derived from a human glioblastoma are implanted subcutaneously in the rear flank of athymic rats. When the tumors reach the size of 200-250 mm^3, compounds are administered to the animals by a single IV injection in a dose-response study or in a time-course study. At the end of each treatment, animals are asphyxiated with CO2. Tumors are harvested by surgical excision, quickly frozen in liquid nitrogen and stored at −80° C. until analysis. Sera are prepared from blood harvested from the heart by cardiac puncture and stored at −80° C. until analysis.
The AKT inhibitor is extracted from serum with acetonitrite/methanol and analyzed alongside an internal standard by LC/MS/MS. […]
Tumors are homogenized in 2 volumes of a lysis buffer containing 25 mM Tris (pH 7.5), Roche complete protease inhibitors, and 1 mM vanadate with Powergen 125 homogenizer, then sequentially passed through an 18 gauge needle and a 23 gauge needle. […] Protein concentrations in the cytoplasmic extracts are determined with a BCA kit. Phospho-GSK3b (pGSK3b) in the soluble extracts is analyzed with the ELISA Kit. For each study, percent inhibitions are calculated relative to the vehicle control group and ANOVA analysis is performed using the JMP software package for the determination of statistical significance.

In the case of `C[C@@H]1CC(=O)Nc2ncnc(N3CCC(c4nc(C(F)(F)F)cn4CCN4CCCC4)CC3)c21` (single isomer, unassigned) [Example 77], the “Combination Index at 50% Inhibition” value (A2780; with Cisplatin) is reported as 0.93, the “Combination Index at 50% Inhibition” value (A2780; with Doxorubicin) is reported as 0.85 and the “Combination Index at 50% Inhibition” value (HCC827; with Erlotinib, HCC827) is reported as 1.87. The “Combination Index at 50% Inhibition” value (HCC827; with Gemcitabine, HCC827) was 0.17, the “Combination Index at 50% Inhibition” value (HCC827; with Rapamycin, HCC-827) was 1.13 and the “Combination Index at 50% Inhibition” value (Calu6; with Cisplatin) was 0.86. The “Combination Index at 50% Inhibition” value (Calu6; with Docetaxel) was 0.65, the “Combination Index at 50% Inhibition” value (Calu6; with Erlotinib) was 0.20 and the “Combination Index at 50% Inhibition” value (Calu6; with Gemcitabine) was 1.16. For the same compound, the “Combination Index at 50% Inhibition” value (Calu6; with Pemetrexed) was 0.93, the “Combination Index at 50% Inhibition” value (Calu6; with Tasisulam) was 1.16 and the “Combination Index at 50% Inhibition” value (NCI-H1975; with Cisplatin) was 0.77. The “Combination Index at 50% Inhibition” value (NCI-H1975; with Docetaxel) was 1.13, the “Combination Index at 50% Inhibition” value (NCI-H1975; with Erlotinib) was 0.47 and the “Combination Index at 50% Inhibition” value (NCI-H1975; with Gemcitabine) was 0.55. The “Combination Index at 50% Inhibition” value (NCI-H1975; with Pemetrexed) was 1.73, the “Combination Index at 50% Inhibition” value (H1650; with Erlotinib) was 0.04 and the “Combination Index at 50% Inhibition” value (H1650; with Gemcitabine) was 0.43. For the same compound, the “Combination Index at 50% Inhibition” value (H1650; with Rapamycin) was 0.07, the “Combination Index at 50% Inhibition” value (NCIH460; with Cisplatin) was 0.76 and 0.91 and the “Combination Index at 50% Inhibition” value (NCIH460; with Docetaxel) was 0.82. The “Combination Index at 50% Inhibition” value (NCIH460; with Erlotinib) was 0.64, the “Combination Index at 50% Inhibition” value (NCIH460; with Gemcitabine) was 0.88 and the “Combination Index at 50% Inhibition” value (BxPC3; with Erlotinib) was 0.36. The “Combination Index at 50% Inhibition” value (BxPC3; with Gemcitabine) was 1.13, the “Combination Index at 50% Inhibition” value (BxPC3; with Rapamycin) was 0.15 and the “Combination Index at 50% Inhibition” value (MCF-7; with Erlotinib) was 0.58. The “Combination Index at 50% Inhibition” value (MCF-7; with Gemcitabine) was 0.10, the “Combination Index at 50% Inhibition” value (MCF-7; with Paclitaxel) was 0.60 and the “Combination Index at 50% Inhibition” value (MCF-7; with Rapamycin) was 0.46. For the same compound, the “Combination Index at 50% Inhibition” value (MCF-7; with Tamoxifen) was 0.74, the “Combination Index at 50% Inhibition” value (H1155) was 0.43 and the “Combination Index at 50% Inhibition” value (MDA-MB-231; with Erlotinib) was 0.05. For the same compound, the “Combination Index at 50% Inhibition” value (MDA-MB-231; with Gemcitabine) was 0.39, the “Combination Index at 50% Inhibition” value (MDA-MB-231; with Paclitaxel) was 1.13 and the “Combination Index at 50% Inhibition” value (MDA-MB-231; with Rapamycin) was 0.01. The “Combination Index at 50% Inhibition” value (RKO) was 0.83, the “Combination Index at 50% Inhibition” value (SK0V3; with Cisplatin) was 1.00 and the “Combination Index at 50% Inhibition” value (SK0V3; with Doxorubicin) was 1.12. The “Combination Index at 50% Inhibition” value (AsPC1; with Erlotinib) was 0.23, the “Combination Index at 50% Inhibition” value (AsPC1; with Gemcitabine) was 0.23 and the “Combination Index at 50% Inhibition” value (AsPC1; with Rapamycin) was 0.22.

For `C[C@@H]1CC(=O)Nc2ncnc(N3CCC(c4nc(C(F)(F)F)cn4CCN4CCCC4)CC3)c21` [Example 78, (R)-5-Methyl-4-(4-(1-(2-(pyrrolidin-1-yl)ethyl)-4-(trifluoromethyl)-1H-imidazol-2-yl)piperidin-1-yl)-5,6-dihydropyrido[2,3-d]pyrimidin-7(8H)-one], the inhibition at 20 mg/kg (AKT) was 48%.
